These results are taken from patent US9156811B2 (priority 2008, dated 2015).

This test relates to Trypanosome (T. brucei brucei). Put plainly: In-vitro antitrypanosomal efficacy assay (cell growth, resazurin). The note with it: T. brucei cell growth. The class given is cell-based. On the technique in general: The colour change of resazurin is a common sign of viable cells or microbes.
Procedure: To column 12, 200 μl media was added to provide a no cells control. Plates were then incubated at 37° C. in an atmosphere of 5% CO2 for 69 hours, before the addition of 20 μl of 500 μM rezasurin solution, and a further incubation period of 4 hours. […] Concentration effect curves were fitted using non-linear regression using XLFit 4.2 and EC50 values determined.
On to `Cc1cc([S+](=O)([O-])Nc2c(C)nn(C)c2C)c(Cl)cc1Cl` [DDD60006], for which the “ED50 (μM) T. brucei” value is more than 1 µM.
For `Cc1nn(C)c(C)c1N[S+](=O)([O-])c1cc(C(F)(F)F)cc(C(F)(F)F)c1` [DDD61393] the value was more than 1 µM.
On to `CCc1ccc([S+](=O)([O-])Nc2c(C)nn(C)c2C)cc1` [DDD71231], for which the “ED50 (μM) T. brucei” value is more than 1 µM.
As for `Cc1cc([S+](=O)([O-])Nc2c(C)nn(C)c2C)ccc1Br` [DDD71235], the “ED50 (μM) T. brucei” value is more than 1 µM.
The same measure for `Cc1nn(C)c(C)c1N[S+](=O)([O-])c1c(Cl)cccc1Cl` [DDD71239]: 23.2 µM.
The same measure for `COc1cc(NC(C)=O)ccc1[S+](=O)([O-])Nc1c(C)nn(C)c1C` [DDD71590]: more than 1 µM; for `Cc1nn(C)c(C)c1N[S+](=O)([O-])c1ccc(CNC(=O)c2ccc(Cl)cc2)s1` [DDD73224]: more than 1 µM.
On to `Cc1nn(C)c(C)c1N[S+](=O)([O-])c1ccc(C#N)cc1Cl` [DDD73228], for which the “ED50 (μM) T. brucei” value is more than 1 µM.
For `Cc1nn(C)c(C)c1N[S+](=O)([O-])c1cc(Cl)cc(Cl)c1O` [DDD73229] the value was more than 1 µM; for `Cc1nn(C)c(C)c1N[S+](=O)([O-])c1c(Cl)cc(Br)cc1Cl` [DDD73234, 4-Bromo-2,6-dichloro-N-(1,3,5-trimethyl-1H-pyrazol-4-yl)-benzenesulfonamide], 14.3 µM; for `Cc1nn(C)c(C)c1N[S+](=O)([O-])c1ccc(Cl)nc1` [DDD73235, 6-Chloro-pyridine-3-sulfonic acid (1,3,5-trimethyl-1H-pyrazol-4-yl)-amide], more than 1 µM.
Consider `Cc1nn(C)c(C)c1N[S+](=O)([O-])c1c(Cl)cc(-c2ccccc2OCC(C)C)cc1Cl` [DDD73273], for which the “ED50 (μM) T. brucei” value was more than 1 µM.
Consider `COCc1ccccc1-c1cc(Cl)c([S+](=O)([O-])Nc2c(C)nn(C)c2C)c(Cl)c1` [DDD73274], for which the “ED50 (μM) T. brucei” value was more than 1 µM.
In the case of `Cc1nn(C)c(C)c1N[S+](=O)([O-])c1ccc(NCCc2ccccc2)nc1` [DDD73319], the “ED50 (μM) T. brucei” value was determined as 8.4 µM.
For `Cc1nn(C)c(C)c1N[S+](=O)([O-])c1c(Cl)cc(-c2ccc(OC(F)(F)F)cc2)cc1Cl` [DDD73323] the value was more than 1 µM; for `Cc1nn(C)c(C)c1N(Cc1ccccc1)[S+](=O)([O-])c1c(Cl)cc(Br)cc1Cl` [DDD85601], more than 1 µM.
The same measure for `Cc1nn(C)c(C)c1N[S+](=O)([O-])c1ccc(NCCN2CCN(C)CC2)nc1` [DDD85602, 6-[2-(4-Methyl-piperazin-1-yl)-ethylamino]-pyridine-3-sulfonic acid (1,3,5-trimethyl-1 H-pyrazol-4-yl)-amide]: 0.63 µM; for `C#CCN(c1c(C)nn(C)c1C)[S+](=O)([O-])c1c(Cl)cc(Br)cc1Cl` [DDD85630]: more than 1 µM.
For `CC#CCN(c1c(C)nn(C)c1C)[S+](=O)([O-])c1c(Cl)cc(Br)cc1Cl` [DDD85631] the value was more than 1 µM; for `Cc1nn(C)c(C)c1N[S+](=O)([O-])c1c(Cl)cc(-c2ccc(CN(C)Cc3ccccc3)cc2)cc1Cl` [DDD85632], more than 1 µM; for `Cc1nn(C)c(C)c1N[S+](=O)([O-])c1ccc(NCCN2CCCCC2)nc1` [DDD85635], 48.1 µM.
Consider `CCN(c1c(C)nn(C)c1C)[S+](=O)([O-])c1c(Cl)cc(Br)cc1Cl` [DDD85637], for which the “ED50 (μM) T. brucei” value was 3.2 µM.
Consider `C=CCN(c1c(C)nn(C)c1C)[S+](=O)([O-])c1c(Cl)cc(Br)cc1Cl` [DDD85638], for which the “ED50 (μM) T. brucei” value was more than 1 µM.
For `CCN(CC)Cc1ccc(-c2cc(Cl)c([S+](=O)([O-])Nc3c(C)nn(C)c3C)c(Cl)c2)cc1` [DDD85639] the value was more than 1 µM; for `Cc1nn(C)c(C)c1N(CC1OCCO1)[S+](=O)([O-])c1c(Cl)cc(Br)cc1Cl` [DDD85641], 16.3 µM; for `Cc1ccc(SCc2ccc([S+](=O)([O-])Nc3c(C)nn(C)c3C)cc2)cc1` [DDD85642], more than 1 µM.
`Cc1nn(C)c(C)c1N[S+](=O)([O-])c1c(Cl)cc(-c2ccc(CN3CCN(C)CC3)cc2)cc1Cl` [DDD85644]: the “ED50 (μM) T. brucei” value stood at 2.1 µM.
The same measure for `Cc1nn(C)c(C)c1N[S+](=O)([O-])c1c(Cl)cc(-c2ccc(N3CCNCC3)nc2)cc1Cl` [DDD85645]: 0.23 µM; for `Cc1nn(C)c(C)c1N[S+](=O)([O-])c1ccc(Br)cc1Cl` [DDD86208, 4-Bromo-2-chloro-N-(1,3,5-trimethyl-1H-pyrazol-4-yl)-benzenesulfonamide]: more than 1 µM.
On to `Cc1nn(C)c(C)c1N[S+](=O)([O-])c1c(Cl)cc(-c2ccnc(Cl)c2)cc1Cl` [DDD86209, 2,6-Dichloro-4-(2-chloro-pyridin-4-yl)-N-(1,3,5-trimethyl-1H-pyrazol-4-yl)-benzenesulfonamide], for which the “ED50 (μM) T. brucei” value was more than 1 µM.
The same measure for `Cc1nn(C)c(C)c1N[S+](=O)([O-])c1c(Cl)cc(-c2ccnc(N3CCN(C)CC3)c2)cc1Cl` [DDD86211, 2,6-Dichloro-4-[2-(4-methyl-piperazin-1-yl)-pyridin-4-yl]-N-(1,3,5-trimethyl-1H-pyrazol-4-yl)-benzenesulfonamide]: 0.19 µM; for `Cc1nn(C)c(C)c1N[S+](=O)([O-])c1ccc(-c2ccnc(N3CCNCC3)c2)cc1` [DDD86213, 4-(2-piperazin-1-yl-pyridin-4-yl)-N-(1,3,6-trimethyl-1H-pyrazol-4-yl)-benzenesulfonamide]: 0.003 µM; for `Cc1nn(C)c(C)c1N[S+](=O)([O-])c1ccc(NC2CCN(Cc3ccccc3)C2)nc1` (stereo not drawn) [DDD86294]: more than 1 µM.
`Cc1nn(C)c(C)c1N[S+](=O)([O-])c1ccc(NC2CCNC2)nc1` (stereo not drawn) [DDD86296]: the “ED50 (μM) T. brucei” value is more than 1 µM.
As for `Cc1nn(C)c(C)c1N[S+](=O)([O-])c1ccc(NCCCN2CCC(N(C)C)C2)nc1` (stereo not drawn) [DDD86300], the “ED50 (μM) T. brucei” value came to 1.73 µM.
The same measure for `Cc1nn(C)c(C)c1N[S+](=O)([O-])c1ccc(NCCN2CCN(c3ccccc3)CC2)nc1` [DDD86301]: more than 1 µM; for `Cc1nn(C)c(C)c1N[S+](=O)([O-])c1ccc(NCCN2CCNCC2)nc1` [DDD86305]: more than 1 µM.
The same measure for `Cc1nn(C)c(C)c1N[S+](=O)([O-])c1ccc(N2CCC(N(C)C)C2)nc1` (stereo not drawn) [DDD86306]: more than 1 µM.
With `Cc1nn(C)c(C)c1N[S+](=O)([O-])c1ccc(N(C)CCO)nc1` [DDD86307], the “ED50 (μM) T. brucei” value is more than 1 µM.
`Cc1nn(C)c(C)c1N[S+](=O)([O-])c1c(Cl)cc(-c2ccnc(NCCN(C)C)c2)cc1Cl` [DDD86309, 2,6-Dichloro-4-[2-(2-dimethylamino-ethylamino)-pyridin-4-yl]-N-(1,3,5-trimethyl-1H-pyrazol-4-yl)-benzenesulfonamide]: the “ED50 (μM) T. brucei” value was more than 1 µM.
For `CCN(CC)Cc1cccc(-c2ccc([S+](=O)([O-])Nc3c(C)nn(C)c3C)cc2)c1` [DDD86312, 3′-Diethylaminomethyl-biphenyl-4-sulfonic acid (1,3,5-trimethyl-1H-pyrazol-4-yl)-amide] the value was 0.07 µM; for `Cc1nn(C)c(C)c1N[S+](=O)([O-])c1ccc(-c2cccc(CN3CCOCC3)c2)cc1` [DDD86314, 3′-Morpholin-4-ylmethyl-biphenyl-4-sulfonic acid (1,3,5-trimethyl-1H-pyrazol-4-yl)-amide], more than 1 µM.
As to `Cc1nn(C)c(C)c1N[S+](=O)([O-])c1ccc(-c2cccc(CN3CCN(C(=O)OC(C)(C)C)CC3)c2)cc1` [DDD86315, 4-[4′-(1,3,5-Trimethyl-1H-pyrazol-4-ylsulfamoyl)-biphenyl-3-ylmethyl]-piperazine-1-carboxylic acid tert-butyl ester], the “ED50 (μM) T. brucei” value was more than 1 µM.
For `Cc1nn(C)c(C)c1N[S+](=O)([O-])c1ccc(-c2cccc(CNCCN(C)C)c2)cc1` [DDD86316, 3′-[(2-Dimethylamino-ethylamino)-methyl]biphenyl-4-sulfonic acid (1,3,5-trimethyl-1H-pyrazol-4-yl)-amide] the value was 5.0 µM; for `Cc1nn(C)c(C)c1N[S+](=O)([O-])c1ccc(-c2cccc(CN3CCNCC3)c2)cc1` [DDD86317, 3′-piperazin-1-ylmethyl-biphenyl-4-sulfonic acid (1,3,5-trimethyl-1H-pyrazol-4-yl)-amide], 0.02 µM.
For `Cc1nn(C)c(C)c1N[S+](=O)([O-])c1ccc(-c2cccc(CN3CCCC3)c2)cc1` [DDD86318, 3′-Pyrrolidin-1-ylmethyl-biphenyl-4-sulfonic acid (1,3,5-trimethyl-1H-pyrazol-4-yl)-amide] the value was 0.21 µM.
For `Cc1nn(C)c(CC(C)C)c1N[S+](=O)([O-])c1c(Cl)cc(-c2ccnc(N3CCNCC3)c2)cc1Cl` [DDD86467, 2,6-Dichloro-N-(5-isobutyl-1,3-dimethyl-1H-pyrazol-4-yl)-4-(2-piperazin-1-yl-pyridin-4-yl)-benzenesulfonamide] the value was 0.003 µM.
`Cc1noc(C)c1N[S+](=O)([O-])c1c(Cl)cc(-c2ccnc(N3CCNCC3)c2)cc1Cl` [DDD86468, 2,6-Dichloro-N-(3,5-dimethyl-isoxazol-4-yl)-4-(2-piperazin-1-yl-pyridin-4-yl)-benzenesulfonamide]: the “ED50 (μM) T. brucei” value was 0.20 µM.
For `Cc1nn(C)c(C)c1N[S+](=O)([O-])c1c(Cl)cc(C#CCN2CCN(C)CC2)cc1Cl` [DDD86469, 2,6-Dichloro-4-[3-(4-methyl-piperazin-1-yl)-prop-1-ynyl]-N-(1,3,5-trimethyl-1H-pyrazol-4-yl)-benzenesulfonamide], the “ED50 (μM) T. brucei” value was 0.55 µM.
For `Cc1nn(C)cc1N[S+](=O)([O-])c1ccc(-c2ccnc(N3CCNCC3)c2)cc1` [DDD86471, N-(1,3-Dimethyl-1H-pyrazol-4-yl)-4-(2-piperazin-1-yl-pyridin-4-yl)-benzenesulfonamide] the value was 0.009 µM; for `Cc1nn(C)c(C)c1N[S+](=O)([O-])c1ccc(NCCN2CCN(Cc3ccccc3)CC2)nc1` [DDD86472], more than 1 µM.
